From article PMC6982040, “A Purified Aspartic Protease from Akkermansia Muciniphila Plays an Important Role in Degrading Muc2” (International Journal of Molecular Sciences, 2019)
Square brackets hold non-standard residues; d marks the D form. Peptide text beside a SMILES is read from it. * marks the point of attachment. Sta = CC(C)C[C@H](N)[C@@H](O)CC(=O)O; Isovaleryl = CC(C)CC(=O)*

Molecular target: T1, Amuc_1434* (Akkermansia muciniphila, UniProt B2UKY3)
T1 construct: recombinant, 6xHis-tag (N-terminal as printed; Pet25b-His vector), E. coli Rosetta (DE3), Ni-Sepharose; ~50 kDa on SDS-PAGE; b10 says amplified from genomic DNA, b49 says gene synthesized
T1 sequence (B2UKY3 22-326): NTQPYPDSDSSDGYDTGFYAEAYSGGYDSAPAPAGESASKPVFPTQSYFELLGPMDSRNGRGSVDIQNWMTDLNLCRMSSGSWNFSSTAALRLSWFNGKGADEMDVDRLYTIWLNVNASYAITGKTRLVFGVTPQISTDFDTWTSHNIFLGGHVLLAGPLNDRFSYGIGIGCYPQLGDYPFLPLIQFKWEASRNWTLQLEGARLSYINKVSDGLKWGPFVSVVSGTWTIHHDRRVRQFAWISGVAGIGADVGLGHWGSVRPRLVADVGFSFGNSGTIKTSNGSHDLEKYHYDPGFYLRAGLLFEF
Test: hemoglobin hydrolysis, UV absorbance at […] nm
Format: biochemical
Settings: read-out: Relative Activity (%)

activity at 10 µM [%] | activity at 20 µM [%] | Compound
88.5 ± 4.7 | – | CC(C)C[C@H](NC(=O)[C@@H]1O[C@H]1C(=O)O)C(=O)NCCCCN=C(N)N [E-64]
– | 40.1 ± 6.7 | CC(C)CC(=O)N[C@H](C(=O)N[C@H](C(=O)N[C@@H](CC(C)C)[C@@H](O)CC(=O)N[C@@H](C)C(=O)N[C@@H](CC(C)C)[C@@H](O)CC(=O)O)C(C)C)C(C)C [pepstatin A] (Isovaleryl-VV[Sta]A[Sta]-OH)
